Common to all, as to type: cell-based
Conditions in all cases: CreLuc reporter gene assay
A general note: In a reporter assay the amount or activity of a reporter protein is the signal.

One assay deals with T1, hGLP1R (Homo sapiens, UniProt P43220).
T1 construct: expressed in transfected cells; host or cells: HEK-293 cells carrying a CRE-luciferase reporter gene
The assay is described as follows: hGLP1R CreLuc reporter gene assay in 0.5% and 100% plasma. The gist of the method:
(§1)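 HEK-293 cells co-expressing GLP-1 or NPY2 receptor and CHO cells expressing GIP receptor, each carrying a CRE-driven luciferase reporter, were stimulated with peptides for 4 hours at 37 °C. Luminescence was read after Bright-Glo addition. EC50 came from 8-point, four-decade curves fitted by variable-slope non-linear regression.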

The target of a further assay is T2, hGIPR (Homo sapiens, UniProt P48546).
T2 construct: expressed in transfected cells; host or cells: CHO cells carrying a CRE-luciferase reporter gene
T2 sequence (P48546 22-466): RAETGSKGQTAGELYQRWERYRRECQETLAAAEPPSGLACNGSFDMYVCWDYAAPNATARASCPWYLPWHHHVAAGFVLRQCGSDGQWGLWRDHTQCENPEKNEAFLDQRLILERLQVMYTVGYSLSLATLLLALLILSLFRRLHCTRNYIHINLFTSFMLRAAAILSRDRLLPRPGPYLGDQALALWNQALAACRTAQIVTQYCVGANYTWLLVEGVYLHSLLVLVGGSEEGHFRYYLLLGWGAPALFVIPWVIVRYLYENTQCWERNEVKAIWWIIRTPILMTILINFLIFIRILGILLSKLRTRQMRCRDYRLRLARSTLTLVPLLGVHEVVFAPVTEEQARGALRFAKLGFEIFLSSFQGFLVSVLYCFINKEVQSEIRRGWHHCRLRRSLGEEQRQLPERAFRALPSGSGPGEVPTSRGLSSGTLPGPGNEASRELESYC
The assay is described as follows: hGIPR CreLuc reporter gene assay in 0.5% and 100% plasma. The gist of the method:
as §1

For another assay, the target named is T3, hNPY2R (Homo sapiens, UniProt P49146).
T3 construct: expressed in transfected cells; host or cells: HEK-293 cells carrying a CRE-luciferase reporter gene
T3 sequence (P49146 1-381): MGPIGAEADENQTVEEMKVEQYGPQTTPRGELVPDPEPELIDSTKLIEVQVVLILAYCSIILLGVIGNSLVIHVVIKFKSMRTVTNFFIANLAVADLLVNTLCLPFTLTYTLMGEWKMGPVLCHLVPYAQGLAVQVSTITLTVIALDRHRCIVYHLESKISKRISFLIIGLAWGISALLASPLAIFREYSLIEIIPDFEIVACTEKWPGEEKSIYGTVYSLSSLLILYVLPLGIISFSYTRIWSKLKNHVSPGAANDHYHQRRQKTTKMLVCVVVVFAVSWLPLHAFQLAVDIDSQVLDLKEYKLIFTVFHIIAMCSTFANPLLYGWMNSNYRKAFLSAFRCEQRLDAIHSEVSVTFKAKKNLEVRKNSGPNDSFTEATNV
In words: hNPY2R CreLuc reporter gene assay in 0.5% and 100% plasma. In outline: as §1

[1] abbreviates: 0.5% human plasma, read-out: hGLP1R 0.5% hP.
Setting [2] is: 0.5% human plasma, read-out: hGIPR 0.5% hP.
Setting [3] is: 100% human plasma, read-out: hNPY2R 100% hP.
The mark [4] stands for this setting: 100% human plasma, read-out: hGLP1R 100% hP.
[5] abbreviates: 0.5% human plasma, read-out: hNPY2R 0.5% hP.
[6] abbreviates: 100% human plasma, read-out: hGIPR 100% hP.

Read-outs that look alike come from different tables or passages of the source. Starred links: 1 amine or outer side, 2 acyl side, 3 side chain; linkers in the order of their positions; H or OH if unused. Non-standard residues stand in square brackets, D forms with d. Groups on a side chain read outwards from the residue. No end group written: not given here. *: point of attachment. C20 diacid = O=C(O)CCCCCCCCCCCCCCCCCCC(=O)*; C18 diacid = O=C(O)CCCCCCCCCCCCCCCCC(=O)*; γGlu = O=C(O)[C@H](CCC(=O)[*:2])N[*:1]; εLys = N[C@@H](CCCCN[*:1])C(=O)[*:2]; AEEA = NCCOCCOCC(=O)O; Aib = CC(C)(N)C(=O)O

T1 sequence (P43220 24-463): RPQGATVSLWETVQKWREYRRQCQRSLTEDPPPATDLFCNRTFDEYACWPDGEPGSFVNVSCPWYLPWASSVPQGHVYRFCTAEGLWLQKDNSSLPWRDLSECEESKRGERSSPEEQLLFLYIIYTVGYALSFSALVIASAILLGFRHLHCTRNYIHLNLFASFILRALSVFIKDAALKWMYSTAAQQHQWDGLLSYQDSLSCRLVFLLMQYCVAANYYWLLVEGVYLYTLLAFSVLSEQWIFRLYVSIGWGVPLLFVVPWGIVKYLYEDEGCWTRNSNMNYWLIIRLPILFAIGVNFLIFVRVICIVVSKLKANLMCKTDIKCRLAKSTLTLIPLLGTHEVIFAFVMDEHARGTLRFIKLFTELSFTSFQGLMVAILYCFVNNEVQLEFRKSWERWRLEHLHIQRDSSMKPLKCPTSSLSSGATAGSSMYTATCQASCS

For the substance “H-Y[Aib]EGTFTSDYSI[Aib]LEKQAQ[Aib]AFVQWLIK([εLys-γGlu-γGlu-γGlu-γGlu-γGlu-γGlu-C20 diacid])GGPSEGVSLRHYYNWLTRQRY-NH2 [Compound 114, Y-Aib-E-G-T-F-T-S-D-Y-S-I-Aib-L-E-K-Q-A-Q-Aib-A-F-V-Q-W-L-I-K(1,3)-GGPSEGVSLRHYYNWLTRQRY-NH2.C20DA-gGlu-gGlu-gGlu-gGlu-gGlu-gGlu-eLys(1,2)]”, the EC50 on hGLP1R (setting [1]) was found to be 0.15 nM; on hGIPR (setting [2]) it was 0.27 nM; at hNPY2R (setting [3]), 44.8 nM.
With “H-Y[Aib]EGTFTSDYSI[Aib]LEKQAQ[Aib]AFVQWLIK([γGlu-γGlu-γGlu-γGlu-γGlu-C18 diacid])GGPESPASLRHYYNWLTRQRY-NH2 [Compound 12, Y-Aib-E-G-T-F-T-S-D-Y-S-I-Aib-L-E-K-Q-A-Q-Aib-A-F-V-Q-W-L-I-K(1,3)-GGPESPASLRHYYNWLTRQRY-NH2.C18DA-gGlu-gGlu-gGlu-gGlu-gGlu(1,2)]”, the EC50 at hGLP1R (setting [1]) worked out at 0.11 nM; at hGLP1R (setting [4]), 4.76 nM; on hGIPR (setting [2]), 0.14 nM; on hNPY2R (setting [5]), 11.9 nM; at hNPY2R (setting [3]) it was 45.8 nM.
For “H-Y[Aib]EGTFTSDYSI[Aib]LEKQAQ[Aib]AFVEWLIK([AEEA-AEEA-γGlu-γGlu-γGlu-γGlu-γGlu-C18 diacid])GGPSSPASLRHYYNWLTRQRY-NH2 [Compound 140, Y-Aib-E-G-T-F-T-S-D-Y-S-I-Aib-L-E-K-Q-A-Q-Aib-A-F-V-E-W-L-I-K(1,3)-GGPSSPASLRHYYNWLTRQRY-NH2.C18DA-gGlu-gGlu-gGlu-gGlu-gGlu-OEG-OEG(1,2)]”, in that order: 0.12 nM, 3.11 nM, 0.22 nM, 12.4 nM and 45.9 nM.
On to “H-Y[Aib]EGTFTSDYSI[Aib]LEKQAQ[Aib]AFVEWLIK([εLys-γGlu-γGlu-γGlu-γGlu-γGlu-γGlu-C20 diacid])GGPSEYESLRHYYNWLTRQRY-NH2 [Compound 93, Y-Aib-E-G-T-F-T-S-D-Y-S-I-Aib-L-E-K-Q-A-Q-Aib-A-F-V-E-W-L-I-K(1,3)-GGPSEYESLRHYYNWLTRQRY-NH2.C20DA-gGlu-gGlu-gGlu-gGlu-gGlu-gGlu-eLys(1,2)]”, for which the EC50 worked out at 0.22 nM on hGLP1R (setting [1]); 8.97 nM at hGLP1R (setting [4]); 0.14 nM at hGIPR (setting [2]); 2.35 nM on hGIPR (setting [6]); 15.3 nM on hNPY2R (setting [5]); 85.7 nM on hNPY2R (setting [3]).
On to “H-Y[Aib]EGTFTSDYSI[Aib]LEKQAQ[Aib]AFVQWLIK([AEEA-AEEA-Glu-Glu-Glu-C18 diacid])GGPEEGASLRHYYNWLTRQRY-NH2 [Compound 188, Y-Aib-E-G-T-F-T-S-D-Y-S-I-Aib-L-E-K-Q-A-Q-Aib-A-F-V-Q-W-L-I-K(1,3)-GGPEEGASLRHYYNWLTRQRY-NH2.C18DA-E-E-E-OEG-OEG(1,2)]”, for which the values for the EC50 at hGLP1R (setting [1]), on hGIPR (setting [2]) and on hNPY2R (setting [5]) were 0.15 nM, 0.12 nM and 16.9 nM, respectively.
Take “H-Y[Aib]EGTFTSDYSI[Aib]LEKQAQ[Aib]AFVEWLIK([εLys-γGlu-γGlu-γGlu-γGlu-γGlu-γGlu-C20 diacid])GGPSSGVS[Aib]RHYYNWLTRQRY-NH2 [Compound 38, Y-Aib-E-G-T-F-T-S-D-Y-S-I-Aib-L-E-K-Q-A-Q-Aib-A-F-V-E-W-L-I-K(1,3)-G-G-P-S-S-G-V-S-Aib-R-H-Y-Y-N-W-L-T-R-Q-R-Y-NH2.C20DA-gGlu-gGlu-gGlu-gGlu-gGlu-gGlu-eLys(1,2)]”: the EC50 amounted to 0.06 nM at hGLP1R (setting [1]), 0.7 nM on hGIPR (setting [6]) and 17.8 nM on hNPY2R (setting [3]).
Regarding “H-Y[Aib]EGTFTSDYSI[Aib]LEKQAE[Aib]AFVQWLIK([εLys-γGlu-γGlu-γGlu-γGlu-C18 diacid])GGPSEGASLRHYYNWLTRQRY-NH2 [Compound 174, Y-Aib-E-G-T-F-T-S-D-Y-S-I-Aib-L-E-K-Q-A-E-Aib-A-F-V-Q-W-L-I-K(1,3)-GGPSEGASLRHYYNWLTRQRY-NH2.C18DA-gGlu-gGlu-gGlu-gGlu-eLys(1,2)]”, the EC50 at hGLP1R (setting [1]) came to 0.22 nM; at hGLP1R (setting [4]), 7.71 nM; at hGIPR (setting [2]), 0.17 nM; at hGIPR (setting [6]) it was 1.26 nM; at hNPY2R (setting [5]), 11.5 nM; on hNPY2R (setting [3]), 39.2 nM.
As to “H-Y[Aib]EGTFTSDYSI[Aib]LEKQAQ[Aib]EFVQWLIK([εLys-γGlu-γGlu-γGlu-γGlu-γGlu-C18 diacid])GGPSEGASLRHYYNWLTRQRY-NH2 [Compound 154, Y-Aib-E-G-T-F-T-S-D-Y-S-I-Aib-L-E-K-Q-A-Q-Aib-E-F-V-Q-W-L-I-K(1,3)-GGPSEGASLRHYYNWLTRQRY-NH2.C18DA-gGlu-gGlu-gGlu-gGlu-gGlu-eLys(1,2)]”, the EC50 on hGLP1R (setting [1]) came out at 0.26 nM; at hGIPR (setting [2]), 0.4 nM; on hGIPR (setting [6]) it was 1.07 nM; at hNPY2R (setting [5]), 10.7 nM.
As for “H-Y[Aib]EGTFTSDYSI[Aib]LEKQAQ[Aib]AFVEWLIK([γGlu-γGlu-γGlu-γGlu-γGlu-C18 diacid])GGPSEGASLRHYYNWLTRQRY-NH2 [Compound 292, Y-Aib-E-G-T-F-T-S-D-Y-S-I-Aib-L-E-K-Q-A-Q-Aib-A-F-V-E-W-L-I-K(1,3)-GGPSEGASLRHYYNWLTRQRY-NH2.C18DA-gGlu-gGlu-gGlu-gGlu-gGlu(1,2)]”, the results for the EC50 at hGLP1R (setting [1]), on hGIPR (setting [2]) and at hNPY2R (setting [5]) were 0.13 nM, 0.16 nM and 19.9 nM, respectively.
As to “Y[Aib]EGTFTSDYSI[Aib]LEKQAQ[Aib]AFVQWLIK([AEEA-AEEA-γGlu-γGlu-γGlu-γGlu-γGlu-C18 diacid])GGPSSGASLRHYYNWLTRQRY-NH2 [Compound 167, Y-Aib-E-G-T-F-T-S-D-Y-S-I-Aib-L-E-K-Q-A-Q-Aib-A-F-V-Q-W-L-I-K(1,3)-GGPSSGASLRHYYNWLTRQRY-NH2.C18DA-gGlu-gGlu-gGlu-gGlu-gGlu-OEG-OEG(1,2)]”, the EC50 turned out to be 0.04 nM at hGLP1R (setting [1]); 0.82 nM on hGLP1R (setting [4]); 0.14 nM at hGIPR (setting [2]); 0.49 nM on hGIPR (setting [6]); 10.5 nM on hNPY2R (setting [5]); 26.5 nM at hNPY2R (setting [3]).
Turning to “H-Y[Aib]EGTFTSDYSI[Aib]LESQAQ[Aib]AFVEWLIK([εLys-γGlu-γGlu-γGlu-γGlu-γGlu-γGlu-C20 diacid])GGPSSGASLRHYYNWLTRQRY-NH2 [Compound 121, Y-Aib-E-G-T-F-T-S-D-Y-S-I-Aib-L-E-S-Q-A-Q-Aib-A-F-V-E-W-L-I-K(1,3)-GGPSSGASLRHYYNWLTRQRY-NH2.C20DA-gGlu-gGlu-gGlu-gGlu-gGlu-gGlu-eLys(1,2)]”, the EC50 at hGLP1R (setting [1]) is 0.18 nM; at hGIPR (setting [2]), 0.65 nM; at hNPY2R (setting [5]), 23.8 nM.
“H-Y[Aib]EGTFTSDYSI[Aib]LEKQAQ[Aib]EFVEWLIK([AEEA-AEEA-γGlu-γGlu-γGlu-C18 diacid])GGPSSGASLRHYYNWLTRQRY-NH2 [Compound 171, Y-Aib-E-G-T-F-T-S-D-Y-S-I-Aib-L-E-K-Q-A-Q-Aib-E-F-V-E-W-L-I-K(1,3)-GGPSSGASLRHYYNWLTRQRY-NH2.C18DA-gGlu-gGlu-gGlu-OEG-OEG(1,2)]”: the EC50 on hGLP1R (setting [1]) was 0.27 nM; at hGLP1R (setting [4]) it was 4.17 nM; on hGIPR (setting [2]) it was 0.2 nM; on hGIPR (setting [6]), 0.83 nM; at hNPY2R (setting [3]), 30.4 nM.

The values are drawn from patent US20240247080A1, “GLP1/GIP/NPY2 RECEPTOR TRIPLE AGONISTS” (Boehringer Ingelheim International GmbH, priority 2022, published 2024).
